Measurements published in patent publication US20070037887A1, “Blockade of mtor to prevent a hormonal adaptive response” (University of Virginia Patent Foundation, priority 2003, published 2007).

Tests used:
[1] = tested on: ERK1/2, Akt, p70S6K, PHAS-1 phosphorylation in LTED cells; assay: IGF-1 induced activation of MAP kinase, PI3 kinase and mTOR in LTED cells (Western); type: cell-based, human
Experimental: FIG. 9. represents data showing the effect of FTS on IGF-1 induced activation of MAP kinase, PI3 kinase, and mTOR in LTED cells. Subconfluent LTED cells grown in 60 mm dishes were serum starved for 24 h, pretreated with FTS (100 μM) or LY 294002 (LY, 20 μM) for 10, 30 or 60 min before addition of IGF-1 (20 ng/ml for 10 min). Cells were then harvested and cell lysates prepared. Phosphorylated and total kinases were detected by Western analysis using specific antibodies.
LTED cells were pretreated with FTS (100 μM) or LY 294002 (20 μM) for 10, 30, and 60 min and then IGF-1 (20 ng/ml) was added for 10 min. […] The inhibitory effect was seen as early as 10 minutes of treatment whereas FTS induced no effect. In marked contrast, both FTS and Ly inhibited the phosphorylation of 4E BP-1, particularly at the 60 minute time point. (FIG. 9).

[2] = doses needed to inhibit tumor growth; cited from earlier work
[3] = tested on: ERK1/2 MAP kinase, Akt, p70 S6 kinase, PHAS-I phosphorylation in LTED cells; assay: Western analysis of serum-stimulated kinase phosphorylation, LTED cells; type: cell-based, human
Experimental: FIGS. 7A-7D represent data showing the effect of FTS on serum-stimulated activation of MAP kinase, PI3 kinase, and mTOR. Subconfluent MCF-7 and LTED cells grown in 60 mm dishes were treated with FTS in their culture media for 24 h. Cells were then harvested and cell lysate prepared. Phosphorylation of ERK1/2 MAP kinase (FIG. 7A), Akt at Ser^473 (FIG. 7B), p70 S6 kinase at Thr^389 (FIG. 7C), and PHAS-I at Ser^65 (FIG. 7D) was detected by Western analysis using specific antibodies and quantitated by densitometry scanning.
FIGS. 10A-10D represent data showing the effect of FTS on serum- and growth factor-induced phosphorylation of p70 S6 kinase at Thr^229 in LTED cells (FIG. 10A). Comparison of FTS and LY 294002 (LY) on Thr^229 phosphorylation of p70 S6K induced by EGF (FIG. 10B; by same treatment as described in FIG. 8). Comparison of FTS and LY 294002 on […] phosphorylation of p70 S6K induced by IGF-1 (FIG. 10C; by same treatment as described in FIG. 8). FIG. 10D is graph displaying the time course of FTS (100 μM) effects on Thr^389 and Thr^229 phosphorylation of p70 S6K in LTED cells cultured in serum containing IMEM.
The levels of phosphorylated ERK1/2 MAPK, Akt (Ser^473), p70S6K (Thr^389) and PHAS-1 (Ser^65) were consistently elevated in LTED cells compared to those in wild type MCF-7 cells as indicated by Western blot analysis using specific antibodies against phosphorylated ERK 1/2 (FIG. 7A), Akt (FIG. 7B), p70S6 kinase (FIG. 7C) and PHAS-1 (FIG. 7D). […] (FIGS. 7C & 7D).
In contrast, LY294002 blocked growth factor induced Thr^229 phosphorylation in a dose- and time-dependent manner (FIGS. 10A and 10B). […] Therefore, FTS's effect on MTOR activity was investigated.

JNK = JNK activation in LTED cells cultured in vitro; type: cell-based, human
Description: FIGS. 17A & 17B represent data showing the effects of FTS on JNK activation in LETD cells cultured in vitro.
FIGS. 17A & 17B represent data showing the effects of FTS on JNK activation in LTED cells cultured in vitro. […] JNK activation has been reported to be associated with apoptosis.

[4] = FTS 100 μM, serum containing medium

CC(C)=CCC/C(C)=C/CC/C(C)=C/CSc1ccccc1C(=O)O [FTS, farnesylthiosalicylic acid]
IGF-1 induced ERK1/2 phosphorylation ([1]; FTS 100 μM or LY 294002 20 μM for 10, 30, 60 min, IGF-1 20 ng/ml 10 min): Neither FTS nor LY 294002 inhibited
phosphorylation of 4E BP-1 ([1]; FTS 100 μM or LY 294002 20 μM, particularly at 60 minute time point): inhibited
IGF-1 induced phosphorylation of Akt at Ser473 and p70S6K at Thr389 ([1]; FTS 100 μM or LY 294002 20 μM, IGF-1 20 ng/ml 10 min): no effect
animal weight [2]: does not cause a reduction of animal weight
toxicity [2]: non-toxic
time at which inhibition of Thr389 phosphorylation maximized [3, 4]: 24 h
time at which inhibition of Thr389 phosphorylation occurred [3, 4]: 2 h
Thr229 phosphorylation of p70 S6K ([3]; FTS 100 μM, serum containing medium, time course): only slightly reduced
phosphorylation of ERK1/2 MAPK, Akt (Ser473), p70S6K (Thr389) and PHAS-1 (Ser65) ([3]; FTS 24 h in culture media): dose-dependently inhibited
JNK activation (JNK): stimulates JNK activation
